The target of test [1] is T1, human amylin receptor (hAMYR3) (Homo sapiens, UniProt O60896+P30988).
T1 construct: host or cells: BHK (Baby Hamster Kidney), Hollex-1 cell line further transfected with RAMP3
The experiment in a line: Human amylin receptor (hAMYR3) in vitro potency assay, CRE-luciferase reporter in BHK cells. The test is classed as cell-based. Conditions: BHK hAMYR3/CRE-Luc cells, 3 hours incubation, assay buffer with 1% ovalbumin. The method, boiled down:
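BHK cells stably expressing human calcitonin receptor (a) plus RAMP3 and a CRE-luciferase reporter, seeded overnight, then exposed to 7-point 7-fold dilutions (often from ~10 nM) in DMEM/HEPES buffer with 1% ovalbumin for 3 h at 37 °C. Luciferase luminescence read after SteadyLite Plus addition.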
(Reporter assays use an easily measured gene product as a stand-in for the process of interest.)

Test [2] has as its target T2, human calcitonin receptor (hCTR) (Homo sapiens, UniProt P30988).
T2 construct: host or cells: BHK (Baby Hamster Kidney), Hollex-1 cell line
T2 sequence (P30988 25-474): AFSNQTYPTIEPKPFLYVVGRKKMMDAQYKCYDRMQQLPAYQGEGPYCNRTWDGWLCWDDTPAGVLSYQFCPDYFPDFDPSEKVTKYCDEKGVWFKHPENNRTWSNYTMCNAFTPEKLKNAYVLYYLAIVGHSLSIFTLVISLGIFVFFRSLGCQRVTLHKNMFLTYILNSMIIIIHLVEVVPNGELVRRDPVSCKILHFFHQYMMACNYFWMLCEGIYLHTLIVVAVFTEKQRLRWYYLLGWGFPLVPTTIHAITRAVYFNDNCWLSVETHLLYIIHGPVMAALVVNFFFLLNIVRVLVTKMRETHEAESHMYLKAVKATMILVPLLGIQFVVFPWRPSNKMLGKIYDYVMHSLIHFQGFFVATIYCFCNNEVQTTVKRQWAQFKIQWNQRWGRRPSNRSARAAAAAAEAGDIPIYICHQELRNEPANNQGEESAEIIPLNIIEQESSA
The experiment in a line: Human calcitonin receptor (hCTR) in vitro potency assay, CRE-luciferase reporter in BHK cells. Conditions: BHK hCTR/CRE-Luc cells, 3 hours incubation, assay buffer with 1% ovalbumin; read-out: hCalcR potency, EC50. The format is cell-based. The method, boiled down:
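BHK cells stably co-expressing human calcitonin receptor and a CRE-luciferase reporter, seeded the day before, were exposed to 7-fold serial dilutions (7 concentrations, often starting near 10 nM) in DMEM/HEPES/1% ovalbumin buffer for 3 h at 37 °C. Luminescence was then read after SteadyLite Plus addition.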

Starred links: 1 amine or outer side, 2 acyl side, 3 side chain; linkers in the order of their positions; H or OH if unused. Residues, ends and D or L forms follow the SMILES beside them. *: point of attachment. C18 diacid = O=C(O)CCCCCCCCCCCCCCCCC(=O)*; γGlu = O=C(O)[C@H](CCC(=O)[*:2])N[*:1]

T1 sequence (O60896 24-148, one chain of several): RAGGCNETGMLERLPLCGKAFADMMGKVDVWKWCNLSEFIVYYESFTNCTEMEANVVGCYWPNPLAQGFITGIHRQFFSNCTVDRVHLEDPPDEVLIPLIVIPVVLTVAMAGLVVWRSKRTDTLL

Turning to `CC[C@H](C)[C@H](NC(=O)[C@@H]1CCCN1C(=O)CNC(=O)[C@H](Cc1ccccc1)NC(=O)[C@H](Cc1c[nH]cn1)NC(=O)[C@H](Cc1c[nH]cn1)NC(=O)[C@H](CC(C)C)NC(=O)[C@H](Cc1ccccc1)NC(=O)[C@H](CCC(=O)O)NC(=O)[C@H](C)NC(=O)[C@H](CC(C)C)NC(=O)[C@H](CCCNC(=N)N)NC(=O)[C@H](CCC(N)=O)NC(=O)[C@@H](NC(=O)[C@H](CCC(N)=O)NC(=O)[C@H](C)NC(=O)[C@@H](NC(=O)[C@H](CO)NC(=O)[C@H](CC(C)C)NC(=O)[C@H](Cc1c[nH]cn1)NC(=O)[C@H](CO)NC(=O)[C@H](C)NC(=O)CC[C@H](NC(=O)CC[C@H](NC(=O)CCCCCCCCCCCCCCCCC(=O)O)C(=O)O)C(=O)O)[C@@H](C)O)[C@@H](C)O)C(=O)N[C@@H](CC(C)C)C(=O)N1CCC[C@H]1C(=O)N1CCC[C@H]1C(=O)N[C@H](C(=O)N[C@@H](CC(=O)O)C(=O)N[C@H](C(=O)NCC(=O)N[C@@H](CO)C(=O)N[C@@H](CCC(=O)O)C(=O)N[C@H](C(=O)N[C@@H](Cc1ccc(O)cc1)C(N)=O)[C@@H](C)O)C(C)C)[C@@H](C)O` [Compound 32, N^1-[(4S)-4-carboxy-4-[[(4S)-4-carboxy-4-(17-carboxyheptadecanoylamino)butanoyl]amino]butanoyl]-[Ala1,Ser2,His3,Leu4,Ser5,Ala7,Gln8,Glu14,His17,Pro25,Pro28,Pro29,Asp31,Glu35],des-(19-22)-human amylin] ({C18 diacid-γGlu-γGlu}-ASHLSTAQTQRLAEFLHHFGPILPPTDVGSETY-NH2), the values for the EC50 in test [1] and in test [2] were 5.71 pM and 15.7 pM, respectively.

Consider `CC[C@H](C)[C@H](NC(=O)[C@H](C)NC(=O)CNC(=O)[C@H](Cc1ccccc1)NC(=O)[C@@H]1CCCN1C(=O)[C@H](CC(=O)O)NC(=O)[C@H](CO)NC(=O)[C@H](CO)NC(=O)[C@H](Cc1c[nH]cn1)NC(=O)[C@H](Cc1c[nH]cn1)NC(=O)[C@H](CC(C)C)NC(=O)[C@H](Cc1ccccc1)NC(=O)[C@H](CCC(=O)O)NC(=O)[C@H](C)NC(=O)[C@H](CC(C)C)NC(=O)[C@H](CCCNC(=N)N)NC(=O)[C@H](CCC(N)=O)NC(=O)[C@@H](NC(=O)[C@H](CCC(N)=O)NC(=O)[C@H](CC(C)C)NC(=O)[C@@H](NC(=O)[C@H](CO)NC(=O)[C@H](CC(C)C)NC(=O)[C@H](Cc1c[nH]cn1)NC(=O)[C@H](CO)NC(=O)[C@H](C)NC(=O)CC[C@H](NC(=O)CCCCCCCCCCCCCCCCC(=O)O)C(=O)O)[C@@H](C)O)[C@@H](C)O)C(=O)N1CCC[C@H]1C(=O)N[C@@H](CO)C(=O)N[C@@H](CO)C(=O)N[C@H](C(=O)N[C@@H](CC(=O)O)C(=O)N[C@H](C(=O)NCC(=O)N1CCC[C@H]1C(=O)N[C@@H](CC(=O)O)C(=O)N[C@H](C(=O)N1CCC[C@H]1C(N)=O)[C@@H](C)O)C(C)C)[C@@H](C)O` [Compound 33, N^1-[(4S)-4-carboxy-4-(17-carboxyheptadecanoylamino)butanoyl]-[Ala1,Ser2,His3,Leu4,Ser5,Leu7,Gln8,Glu14,His17,Asp21,Pro22,Pro27,Asp31,Pro34,Asp35,Pro37]-human amylin] ({C18 diacid-γGlu}-ASHLSTLQTQRLAEFLHHSSDPFGAIPSSTDVGPDTP-NH2), for which the EC50 in test [1] was 1.69 pM; in test [2], 1.74 pM.

On to `CC[C@H](C)[C@H](NC(=O)[C@@H]1CCCN1C(=O)CNC(=O)[C@H](Cc1ccccc1)NC(=O)[C@H](CC(N)=O)NC(=O)[C@H](CC(=O)O)NC(=O)[C@H](CO)NC(=O)[C@H](CO)NC(=O)[C@H](Cc1c[nH]cn1)NC(=O)[C@H](Cc1c[nH]cn1)NC(=O)[C@H](CC(C)C)NC(=O)[C@H](Cc1ccccc1)NC(=O)[C@H](CCC(=O)O)NC(=O)[C@H](C)NC(=O)[C@H](CC(C)C)NC(=O)[C@H](CCCNC(=N)N)NC(=O)[C@H](CCC(N)=O)NC(=O)[C@@H](NC(=O)[C@H](CCC(N)=O)NC(=O)[C@H](CC(C)C)NC(=O)[C@@H](NC(=O)[C@H](CO)NC(=O)[C@H](CC(C)C)NC(=O)[C@H](Cc1c[nH]cn1)NC(=O)[C@H](CO)NC(=O)[C@H](C)NC(=O)CC[C@H](NC(=O)CCCCCCCCCCCCCCCCC(=O)O)C(=O)O)[C@@H](C)O)[C@@H](C)O)C(=O)N[C@@H](CC(C)C)C(=O)N1CCC[C@H]1C(=O)N1CCC[C@H]1C(=O)N[C@H](C(=O)N[C@@H](CC(=O)O)C(=O)N[C@H](C(=O)NCC(=O)N[C@@H](CO)C(=O)N[C@@H](CC(N)=O)C(=O)N[C@H](C(=O)N1CCC[C@H]1C(N)=O)[C@@H](C)O)C(C)C)[C@@H](C)O` [Compound 34, N^1-[(4S)-4-carboxy-4-(17-carboxyheptadecanoylamino)butanoyl]-[Ala1,Ser2,His3,Leu4,Ser5,Leu7,Gln8,Glu14,His17,Asp21,Pro25,Pro28,Pro29,Asp31,Pro37]-human amylin] ({C18 diacid-γGlu}-ASHLSTLQTQRLAEFLHHSSDNFGPILPPTDVGSNTP-NH2), for which the EC50 in test [1] was 1.91 pM; in test [2] it was 2.06 pM.

Take `CC[C@H](C)[C@H](NC(=O)[C@@H]1CCCN1C(=O)CNC(=O)[C@H](Cc1ccccc1)NC(=O)[C@H](Cc1c[nH]cn1)NC(=O)[C@H](Cc1c[nH]cn1)NC(=O)[C@H](CC(C)C)NC(=O)[C@H](Cc1ccccc1)NC(=O)[C@H](CCC(=O)O)NC(=O)[C@H](C)NC(=O)[C@H](CC(C)C)NC(=O)[C@H](CCCNC(=N)N)NC(=O)[C@H](CCC(N)=O)NC(=O)[C@@H](NC(=O)[C@H](CCC(N)=O)NC(=O)[C@H](CC(C)C)NC(=O)[C@@H](NC(=O)[C@H](CO)NC(=O)[C@H](CC(C)C)NC(=O)[C@H](Cc1c[nH]cn1)NC(=O)[C@H](CO)NC(=O)[C@H](C)NC(=O)CC[C@H](NC(=O)CCCCCCCCCCCCCCCCC(=O)O)C(=O)O)[C@@H](C)O)[C@@H](C)O)C(=O)N[C@@H](CC(C)C)C(=O)N1CCC[C@H]1C(=O)N1CCC[C@H]1C(=O)N[C@H](C(=O)N[C@@H](CC(=O)O)C(=O)N[C@H](C(=O)NCC(=O)N[C@@H](CO)C(=O)N[C@@H](CCC(=O)O)C(=O)N[C@H](C(=O)N1CCC[C@H]1C(N)=O)[C@@H](C)O)C(C)C)[C@@H](C)O` [Compound 35, N^1-[(4S)-4-carboxy-4-(17-carboxyheptadecanoylamino)butanoyl]-[Ala1,Ser2,His3,Leu4,Ser5,Leu7,Gln8,Glu14,His17,Pro25,Pro28,Pro29,Asp31,Glu35,Pro37],des-(19-22)-human amylin] ({C18 diacid-γGlu}-ASHLSTLQTQRLAEFLHHFGPILPPTDVGSETP-NH2): the EC50 in test [1] was 1.6 pM; in test [2] it was 2.26 pM.

For the molecule `CC[C@H](C)[C@H](NC(=O)[C@H](C)NC(=O)CNC(=O)[C@H](Cc1ccccc1)NC(=O)[C@@H]1CCCN1C(=O)[C@H](CC(=O)O)NC(=O)[C@H](CO)NC(=O)[C@H](CO)NC(=O)[C@H](Cc1c[nH]cn1)NC(=O)[C@H](Cc1c[nH]cn1)NC(=O)[C@H](CC(C)C)NC(=O)[C@H](Cc1ccccc1)NC(=O)[C@H](CCC(=O)O)NC(=O)[C@H](C)NC(=O)[C@H](CC(C)C)NC(=O)[C@H](CCCNC(=N)N)NC(=O)[C@H](CCC(N)=O)NC(=O)[C@@H](NC(=O)[C@H](CCC(N)=O)NC(=O)[C@H](C)NC(=O)[C@@H](NC(=O)[C@H](CO)NC(=O)[C@H](CC(C)C)NC(=O)[C@H](Cc1c[nH]cn1)NC(=O)[C@H](CO)NC(=O)[C@H](C)NC(=O)CC[C@H](NC(=O)CCCCCCCCCCCCCCCCC(=O)O)C(=O)O)[C@@H](C)O)[C@@H](C)O)C(=O)N1CCC[C@H]1C(=O)N[C@@H](CO)C(=O)N[C@@H](CO)C(=O)N[C@H](C(=O)N[C@@H](CC(=O)O)C(=O)N[C@H](C(=O)NCC(=O)N1CCC[C@H]1C(=O)N[C@@H](CC(=O)O)C(=O)N[C@H](C(=O)N[C@@H](Cc1ccc(O)cc1)C(N)=O)[C@@H](C)O)C(C)C)[C@@H](C)O` [Compound 36, N^1-[(4S)-4-carboxy-4-(17-carboxyheptadecanoylamino)butanoyl]-[Ala1,Ser2,His3,Leu4,Ser5,Ala7,Gln8,Glu14,His17,Asp21,Pro22,Pro27,Asp31,Pro34,Asp35]-human amylin] ({C18 diacid-γGlu}-ASHLSTAQTQRLAEFLHHSSDPFGAIPSSTDVGPDTY-NH2), the EC50 in test [1] is 2.96 pM; in test [2] it was 3.22 pM.

By EC50 is commonly meant the concentration that produces a half-maximal response.

The record behind these values is patent US12116388B2, “Amylin receptor agonists” (Novo Nordisk A/S, priority 2022, dated 2024).
